# Data as given in US20240182513A1, “SEPARATION OF METAL IONS FROM A SAMPLE USING GLYCOLIPIDS” (ARIZONA BOARD OF REGENTS ON BEHALF OF THE UNIVERSITY OF …, priority 2021, published 2024).
# Tests used:
# [1] = Example 2.1 rhamnolipid precipitation, filtration, centrifugation: magnesium; details: for Treatment 2: Rhamnolipid and Filtration Cf / Treatment 3: Rhamnolipid and Centrifugation Cc / Treatment 1: Rhamnolipid Only Cr: magnesium concentration after treatment; for Treatment 2: Rhamnolipid and Filtration (Rf) efficiency of removal / Treatment 1: Rhamnolipid Only (Rr) efficiency of removal / Treatment 3: Rhamnolipid and Centrifugation (Rc) efficiency of removal: magnesium
# Description: (§1) Structural variants of synthetic glycolipids were used to show the effect of the number and length of the hydrophobic tail(s) on rhamnolipid as a chemical precipitant. […] Solutions (10 mM) were made using nanopure water (≥18 MΩ-cm) then adjusted to a pH of 6.9±0.05 with HNO3 and NaOH. These solutions were made in advance and stored in the cold room for up to one month. They were brought to room temperature before each experiment.
# (§2) Three metals were tested for binding with rhamnolipid. Lead as […] (Fisher Scientific, Waltham, MA, 99% purity), was chosen to represent a metal with high rhamnolipid-metal conditional stability constant; lanthanum as La(NO3)3 6(H2O) (Sigma-Aldrich, St. Louis, MO, 99.99% purity) was chosen as a representative REE; and magnesium as Mg(NO3)2 6(H2O) (Sigma-Aldrich, St. Louis, MO, 99% purity) was chosen to represent a metal with a low rhamnolipid-metal conditional stability constant (Hogan et al., 2017). Metal solutions (5 mM) were made using nanopure water (≥18 MΩ-cm) in 20 ml glass scintillation vials. All solutions were used within 15 min to ensure minimal adsorption to the glass vial.
# (§3) Three glycolipid-based treatments were evaluated to remove metal from solution: (1) the addition of glycolipid with no further treatment (gravitational precipitation), (2) the addition of a glycolipid followed by filtration or (3) the addition of a glycolipid followed by centrifugation. Each metal (Pb, La, and Mg) was evaluated separately with each of the glycolipid structures. For each experiment, a metal solution was mixed with a glycolipid solution in a 1.7 ml reaction tube at varying molar ratios of glycolipid to metal: 0:1 (glycolipid-free control), 2:1, 5:1, and 10:1. The reactions were mixed in the order of nanopure water (≥18 MΩ-cm), glycolipid solution (10 mM), then metal solution (5 mM). The metal and glycolipid solutions were continuously stirred as they were aliquoted into the reaction tubes. The experiment was performed in triplicate.
# (§4) The reaction tubes were mixed overnight (16 to 24 h) and then three samples were collected from each tube to measure the effect of each of the three treatments: a glycolipid only treatment sample, a filtration treatment sample, and a centrifugation treatment sample. Briefly, for the glycolipid only treatment samples all tubes were vortexed for approximately 5 sec immediately before removing 0.1 ml into a dilution tube of 2% trace metal grade nitric acid (12 to 14 ml) to minimize the settling of particles. For the filtration samples each reaction tube was vortexed for 5 sec and then a 0.6 ml aliquot was collected with a 1 ml syringe. A GHP acrodisc disk filter (hydrophilic polypropylene membrane, 0.45 μm pore size, 25 mm disc diameter) from Pall Life Sciences (Port Washington, New York) was then placed onto the end of the syringe and the solution was pushed through the filter. The void space in the disk filter holds approximately 0.5 ml, therefore around 0.1 ml of filtrate was collected into a dilution tube. For the centrifugation sample, the remaining solution was centrifuged at 10,000 RCF for 15 min. Approximately 0.1 ml of the supernatant was aliquoted into a dilution tube. Following collection, all samples were taken for metal analysis using ICP-MS.
# [2] = Example 2.1 rhamnolipid precipitation, filtration, centrifugation: lead; details: for Treatment 2: Rhamnolipid and Filtration Cf / Treatment 3: Rhamnolipid and Centrifugation Cc / Treatment 1: Rhamnolipid Only Cr: lead concentration after treatment; for Treatment 1: Rhamnolipid Only (Rr) efficiency of removal / Treatment 2: Rhamnolipid and Filtration (Rf) efficiency of removal / Treatment 3: Rhamnolipid and Centrifugation (Rc) efficiency of removal: lead
# Description: as §1, §2, §3, §4
# [3] = Example 2.1 rhamnolipid precipitation, filtration, centrifugation: lanthanum; details: for Treatment 2: Rhamnolipid and Filtration Cf / Treatment 3: Rhamnolipid and Centrifugation Cc / Treatment 1: Rhamnolipid Only Cr: lanthanum concentration after treatment; for Treatment 1: Rhamnolipid Only (Rr) efficiency of removal / Treatment 2: Rhamnolipid and Filtration (Rf) efficiency of removal / Treatment 3: Rhamnolipid and Centrifugation (Rc) efficiency of removal: lanthanum
# Description: as §1, §2, §3, §4
# [4] = molar ratio rhamnolipid:magnesium 2 to 1
# [5] = molar ratio rhamnolipid:lead 2 to 1
# [6] = molar ratio rhamnolipid:lanthanum 2 to 1
smiles,measurement,setting,value
CCCCCCCCCCCC(CC(=O)O)OC1O[C@@H](C)[C@H](O)[C@@H](O)[C@H]1O (some centres unmarked) [Rha C14],Treatment 2: Rhamnolipid and Filtration Cf,[1]; molar ratio 2 to 1,0.147 ± 0.045 mmol/L
same,Treatment 3: Rhamnolipid and Centrifugation Cc,[1]; molar ratio 2 to 1,0.292 ± 0.008 mmol/L
same,Treatment 1: Rhamnolipid Only Cr,[1]; molar ratio 5 to 1,0.300 ± 0.018 mmol/L
same,Treatment 2: Rhamnolipid and Filtration Cf,[1]; molar ratio 5 to 1,0.088 ± 0.042 mmol/L
same,Treatment 3: Rhamnolipid and Centrifugation Cc,[1]; molar ratio 5 to 1,0.279 ± 0.016 mmol/L
same,Treatment 1: Rhamnolipid Only Cr,[1]; molar ratio 10 to 1,0.302 ± 0.017 mmol/L
same,Treatment 2: Rhamnolipid and Filtration Cf,[1]; molar ratio 10 to 1,0.009 ± 0.004 mmol/L
same,Treatment 3: Rhamnolipid and Centrifugation Cc,[1]; molar ratio 10 to 1,0.219 ± 0.021 mmol/L
same,Treatment 1: Rhamnolipid Only Cr,[1]; [4],0.291 ± 0.005 mmol/L
same,Treatment 2: Rhamnolipid and Filtration (Rf) efficiency of removal,[1]; molar ratio 2 to 1,(45.0%)
same,Treatment 2: Rhamnolipid and Filtration (Rf) efficiency of removal,[1]; molar ratio 5 to 1,(66.9%)
same,Treatment 2: Rhamnolipid and Filtration (Rf) efficiency of removal,[1]; molar ratio 10 to 1,(96.6%)
same,Treatment 2: Rhamnolipid and Filtration Cf,[2]; molar ratio 2 to 1,0.031 ± 0.030 mmol/L
same,Treatment 3: Rhamnolipid and Centrifugation Cc,[2]; molar ratio 2 to 1,0.194 ± 0.006 mmol/L
same,Treatment 1: Rhamnolipid Only Cr,[2]; molar ratio 5 to 1,0.315 ± 0.004 mmol/L
same,Treatment 2: Rhamnolipid and Filtration Cf,[2]; molar ratio 5 to 1,0.000 ± 0.000 mmol/L
same,Treatment 3: Rhamnolipid and Centrifugation Cc,[2]; molar ratio 5 to 1,0.315 ± 0.006 mmol/L
same,Treatment 1: Rhamnolipid Only Cr,[2]; molar ratio 10 to 1,0.311 ± 0.008 mmol/L
same,Treatment 2: Rhamnolipid and Filtration Cf,[2]; molar ratio 10 to 1,0.001 ± 0.001 mmol/L
same,Treatment 3: Rhamnolipid and Centrifugation Cc,[2]; molar ratio 10 to 1,0.327 ± 0.001 mmol/L
same,Treatment 1: Rhamnolipid Only Cr,[2]; [5],0.278 ± 0.011 mmol/L
same,Treatment 1: Rhamnolipid Only (Rr) efficiency of removal,[2]; molar ratio 2 to 1,(13.3%)
same,Treatment 2: Rhamnolipid and Filtration (Rf) efficiency of removal,[2]; molar ratio 2 to 1,(90.2%)
same,Treatment 3: Rhamnolipid and Centrifugation (Rc) efficiency of removal,[2]; molar ratio 2 to 1,(39.4%)
same,Treatment 1: Rhamnolipid Only (Rr) efficiency of removal,[2]; molar ratio 5 to 1,(1.6%)
same,Treatment 2: Rhamnolipid and Filtration (Rf) efficiency of removal,[2]; molar ratio 5 to 1,(100.0%)
same,Treatment 3: Rhamnolipid and Centrifugation (Rc) efficiency of removal,[2]; molar ratio 5 to 1,(1.8%)
same,Treatment 1: Rhamnolipid Only (Rr) efficiency of removal,[2]; molar ratio 10 to 1,(3.0%)
same,Treatment 2: Rhamnolipid and Filtration (Rf) efficiency of removal,[2]; molar ratio 10 to 1,(99.7%)
same,Treatment 2: Rhamnolipid and Filtration Cf,[3]; molar ratio 2 to 1,0.164 ± 0.058 mmol/L
same,Treatment 3: Rhamnolipid and Centrifugation Cc,[3]; molar ratio 2 to 1,0.221 ± 0.014 mmol/L
same,Treatment 1: Rhamnolipid Only Cr,[3]; molar ratio 5 to 1,0.215 ± 0.024 mmol/L
same,Treatment 2: Rhamnolipid and Filtration Cf,[3]; molar ratio 5 to 1,0.044 ± 0.007 mmol/L
same,Treatment 3: Rhamnolipid and Centrifugation Cc,[3]; molar ratio 5 to 1,0.094 ± 0.002 mmol/L
same,Treatment 1: Rhamnolipid Only Cr,[3]; molar ratio 10 to 1,0.314 ± 0.016 mmol/L
same,Treatment 2: Rhamnolipid and Filtration Cf,[3]; molar ratio 10 to 1,0.0 ± 0.000 mmol/L
same,Treatment 3: Rhamnolipid and Centrifugation Cc,[3]; molar ratio 10 to 1,0.006 ± 0.001 mmol/L
same,Treatment 1: Rhamnolipid Only Cr,[3]; [6],0.247 ± 0.034 mmol/L
same,Treatment 1: Rhamnolipid Only (Rr) efficiency of removal,[3]; molar ratio 2 to 1,(16.9%)
same,Treatment 2: Rhamnolipid and Filtration (Rf) efficiency of removal,[3]; molar ratio 2 to 1,(44.9%)
same,Treatment 3: Rhamnolipid and Centrifugation (Rc) efficiency of removal,[3]; molar ratio 2 to 1,(25.8%)
same,Treatment 1: Rhamnolipid Only (Rr) efficiency of removal,[3]; molar ratio 5 to 1,(27.7%)
same,Treatment 2: Rhamnolipid and Filtration (Rf) efficiency of removal,[3]; molar ratio 5 to 1,(85.3%)
same,Treatment 3: Rhamnolipid and Centrifugation (Rc) efficiency of removal,[3]; molar ratio 5 to 1,(68.5%)
same,Treatment 2: Rhamnolipid and Filtration (Rf) efficiency of removal,[3]; molar ratio 10 to 1,1.0 (99.9%)
same,Treatment 3: Rhamnolipid and Centrifugation (Rc) efficiency of removal,[3]; molar ratio 10 to 1,(98.0%)
CCCCCCCCCCCCCCCC(CC(=O)O)OC1O[C@@H](C)[C@H](O)[C@@H](O)[C@H]1O (some centres unmarked) [Rha C18],Treatment 2: Rhamnolipid and Filtration Cf,[1]; molar ratio 2 to 1,0.169 ± 0.015 mmol/L
same,Treatment 3: Rhamnolipid and Centrifugation Cc,[1]; molar ratio 2 to 1,0.216 ± 0.002 mmol/L
same,Treatment 1: Rhamnolipid Only Cr,[1]; molar ratio 5 to 1,0.215 ± 0.002 mmol/L
same,Treatment 2: Rhamnolipid and Filtration Cf,[1]; molar ratio 5 to 1,0.056 ± 0.012 mmol/L
same,Treatment 3: Rhamnolipid and Centrifugation Cc,[1]; molar ratio 5 to 1,0.141 ± 0.001 mmol/L
same,Treatment 1: Rhamnolipid Only Cr,[1]; molar ratio 10 to 1,0.304 ± 0.001 mmol/L
same,Treatment 2: Rhamnolipid and Filtration Cf,[1]; molar ratio 10 to 1,0.017 ± 0.002 mmol/L
same,Treatment 3: Rhamnolipid and Centrifugation Cc,[1]; molar ratio 10 to 1,0.107 ± 0.004 mmol/L
same,Treatment 1: Rhamnolipid Only Cr,[1]; [4],0.265 ± 0.002 mmol/L
same,Treatment 1: Rhamnolipid Only (Rr) efficiency of removal,[1]; molar ratio 2 to 1,(12.1%)
same,Treatment 2: Rhamnolipid and Filtration (Rf) efficiency of removal,[1]; molar ratio 2 to 1,(37.0%)
same,Treatment 3: Rhamnolipid and Centrifugation (Rc) efficiency of removal,[1]; molar ratio 2 to 1,(20.5%)
same,Treatment 1: Rhamnolipid Only (Rr) efficiency of removal,[1]; molar ratio 5 to 1,(19.5%)
same,Treatment 2: Rhamnolipid and Filtration (Rf) efficiency of removal,[1]; molar ratio 5 to 1,(79.0%)
same,Treatment 3: Rhamnolipid and Centrifugation (Rc) efficiency of removal,[1]; molar ratio 5 to 1,(47.4%)
same,Treatment 2: Rhamnolipid and Filtration (Rf) efficiency of removal,[1]; molar ratio 10 to 1,(93.7%)
same,Treatment 3: Rhamnolipid and Centrifugation (Rc) efficiency of removal,[1]; molar ratio 10 to 1,(60.1%)
same,Treatment 2: Rhamnolipid and Filtration Cf,[2]; molar ratio 2 to 1,0.027 ± 0.001 mmol/L
same,Treatment 3: Rhamnolipid and Centrifugation Cc,[2]; molar ratio 2 to 1,0.132 ± 0.001 mmol/L
same,Treatment 1: Rhamnolipid Only Cr,[2]; molar ratio 5 to 1,0.044 ± 0.008 mmol/L
same,Treatment 2: Rhamnolipid and Filtration Cf,[2]; molar ratio 5 to 1,0.000 ± 0.002 mmol/L
same,Treatment 3: Rhamnolipid and Centrifugation Cc,[2]; molar ratio 5 to 1,0.005 ± 0.002 mmol/L
same,Treatment 1: Rhamnolipid Only Cr,[2]; molar ratio 10 to 1,0.255 ± 0.015 mmol/L
same,Treatment 2: Rhamnolipid and Filtration Cf,[2]; molar ratio 10 to 1,0.000 ± 0.001 mmol/L
same,Treatment 3: Rhamnolipid and Centrifugation Cc,[2]; molar ratio 10 to 1,0.014 ± 0.001 mmol/L
same,Treatment 1: Rhamnolipid Only Cr,[2]; [5],0.123 ± 0.002 mmol/L
same,Treatment 1: Rhamnolipid Only (Rr) efficiency of removal,[2]; molar ratio 2 to 1,(54.8%)
same,Treatment 2: Rhamnolipid and Filtration (Rf) efficiency of removal,[2]; molar ratio 2 to 1,(90.1%)
same,Treatment 3: Rhamnolipid and Centrifugation (Rc) efficiency of removal,[2]; molar ratio 2 to 1,(51.6%)
same,Treatment 1: Rhamnolipid Only (Rr) efficiency of removal,[2]; molar ratio 5 to 1,(83.9%)
same,Treatment 2: Rhamnolipid and Filtration (Rf) efficiency of removal,[2]; molar ratio 5 to 1,(99.9%)
same,Treatment 3: Rhamnolipid and Centrifugation (Rc) efficiency of removal,[2]; molar ratio 5 to 1,(98.1%)
same,Treatment 1: Rhamnolipid Only (Rr) efficiency of removal,[2]; molar ratio 10 to 1,(6.2%)
same,Treatment 2: Rhamnolipid and Filtration (Rf) efficiency of removal,[2]; molar ratio 10 to 1,(99.9%)
same,Treatment 3: Rhamnolipid and Centrifugation (Rc) efficiency of removal,[2]; molar ratio 10 to 1,(94.7%)
same,Treatment 2: Rhamnolipid and Filtration Cf,[3]; molar ratio 2 to 1,0.116 ± 0.029 mmol/L
same,Treatment 3: Rhamnolipid and Centrifugation Cc,[3]; molar ratio 2 to 1,0.228 ± 0.013 mmol/L
same,Treatment 1: Rhamnolipid Only Cr,[3]; molar ratio 5 to 1,0.121 ± 0.009 mmol/L
same,Treatment 2: Rhamnolipid and Filtration Cf,[3]; molar ratio 5 to 1,0.001 ± 0.002 mmol/L
same,Treatment 3: Rhamnolipid and Centrifugation Cc,[3]; molar ratio 5 to 1,0.088 ± 0.003 mmol/L
same,Treatment 1: Rhamnolipid Only Cr,[3]; molar ratio 10 to 1,0.331 ± 0.024 mmol/L
same,Treatment 2: Rhamnolipid and Filtration Cf,[3]; molar ratio 10 to 1,0.004 ± 0.001 mmol/L
same,Treatment 3: Rhamnolipid and Centrifugation Cc,[3]; molar ratio 10 to 1,0.051 ± 0.010 mmol/L
same,Treatment 1: Rhamnolipid Only Cr,[3]; [6],0.249 ± 0.009 mmol/L
same,Treatment 1: Rhamnolipid Only (Rr) efficiency of removal,[3]; molar ratio 2 to 1,(16.5%)
same,Treatment 2: Rhamnolipid and Filtration (Rf) efficiency of removal,[3]; molar ratio 2 to 1,(61.1%)
same,Treatment 3: Rhamnolipid and Centrifugation (Rc) efficiency of removal,[3]; molar ratio 2 to 1,(23.4%)
same,Treatment 1: Rhamnolipid Only (Rr) efficiency of removal,[3]; molar ratio 5 to 1,(59.4%)
same,Treatment 2: Rhamnolipid and Filtration (Rf) efficiency of removal,[3]; molar ratio 5 to 1,(99.5%)
same,Treatment 3: Rhamnolipid and Centrifugation (Rc) efficiency of removal,[3]; molar ratio 5 to 1,(70.6%)
same,Treatment 2: Rhamnolipid and Filtration (Rf) efficiency of removal,[3]; molar ratio 10 to 1,(98.8%)
same,Treatment 3: Rhamnolipid and Centrifugation (Rc) efficiency of removal,[3]; molar ratio 10 to 1,(82.8%)
